These results are taken from US8906945B2 (priority 2009, dated 2014).

Like-named read-outs stand apart in the source and are kept apart here.

Series [1] deals with T3SS-mediated secretion of ExoS′-βLA fusion protein from P. aeruginosa strain MDM973. Nature of the series: microbe, parasite or virus in culture. Format: cell-based, Pseudomonas aeruginosa.
The test system of series [2] is P. aeruginosa T3SS (exoT-luxCDABE reporter strain MDM852). Format: cell-based, Pseudomonas aeruginosa. The conditions noted are these: both at 50 μM compound; for Serum Effect: % inhibition of exoT-lux RLU in the absence of serum/% inhibition in the presence of 10% fetal calf serum; for RLU Selectivity / RLU-S (RLU Selectivity): % inhibition of exoT-lux RLU/% inhibition of lac-lux RLU; for RLU-S (RLU Selectivity): Table 5.

A further series deals with HeLa cells. The note with it: ratio of HeLa CC50 vs ExoS′-βLA IC50.
A further series in a line: in vitro. The conditions noted are these: human.
Series [3] deals with T3SS-mediated secretion of YopE-βLA fusion protein from Y. pestis strain JG153/pMM85. The series is described as follows: microbe, parasite or virus in culture. Format: cell-based. The note with it: Yersinia pestis, read-out: yopE-βLA IC50.
A further series concerns P. aeruginosa. Nature of the series: Minimum inhibitory concentration (broth microdilution). The conditions noted are these: Pseudomonas aeruginosa, read-out: MIC vs. P. aeruginosa.
Series [4] relates to ExoU translocation from P. aeruginosa strain PAKΔSTYexoU into CHO cells. The series is described as follows: Inhibition of P. aeruginosa ExoU-dependent CHO cell killing (LDH release). The note with it: ExoU-secreting P. aeruginosa, MOI 5. Background: LDH leaks from cells whose membrane has failed.
Setting [5] is: Pseudomonas aeruginosa, read-out: IC50 (μM) (ExoS′-βLA assay), Table 4.
The mark [6] stands for this setting: Table 4, read-out: IC50 (μM) (ExoS′-βLA assay).
The mark [7] stands for this setting: Pseudomonas aeruginosa, read-out: ExoS′-βLA IC50, Table 3, secretion from P. aeruginosa strain MDM973 reduced by 50%.
Setting [8] is: Pseudomonas aeruginosa, read-out: IC50 in the ExoS′-βLA secretion assay.
Setting [9] is: CC50 (cytotoxicity, HeLa), absence of serum.
[10] abbreviates: Pseudomonas aeruginosa, read-out: ExoS′-βLA IC50, Table 5, P. aeruginosa strain MDM973.

As to `CC(Oc1ccc(Cl)cc1Cl)C(=O)NCc1ccncc1` (racemic) [compound 6372013, 2-(2,4-dichlorophenoxy)-N-(4-pyridinylmethyl)propanamide], the IC50 (in general, the concentration that inhibits the measured activity by half) in series [1] (setting [5]) stood at 59 µM.
The same measure, in the same setting: the figure for `CC(Oc1ccc(Cl)cc1Cl)C(=O)NCc1ccc(Cl)c(Cl)c1` (racemic) [compound 7271715, N-(3,4-dichlorobenzyl)-2-(2,4-dichlorophenoxy)propanamide] is > 100 µM.
Consider `CC(Oc1ccccc1F)C(=O)NCc1ccc2c(c1)OCO2` (centres unmarked) [compound 7339628], for which, in series [1] (setting [6]), the IC50 is > 100 µM.
Regarding `NC(=O)/C=C/C(=O)Nc1ccccc1` [Compound 6, N1-phenylfumaramide], in series [2], the “Serum Effect” value amounted to 1.5 and the “RLU Selectivity” value is recorded as 3.6. The IC50 in series [1] (setting [7]) came to 19 µM. Besides, the CC50/IC50 in the series with HeLa cells is listed as 1.8. The CC50 in the series “in vitro” (HeLa CC50) amounted to 35 µM.
As to `CCc1ccc2nc(N3C(=O)C(O)=C(C(=O)c4cccs4)C3c3ccc([N+](=O)[O-])cc3)sc2c1` (centres unmarked) [Compound 10, 1-(6-ethylbenzo[d]thiazol-2-yl)-3-hydroxy-5-(4-nitrophenyl)-4-(thiophene-2-carbonyl)-1H-pyrrol-2(5H)-one], in series [2], the “Serum Effect” value was 1.8 and the “RLU Selectivity” value is 3.8. For the same compound, the IC50 in series [1] (setting [7]) was determined as 3 µM. Moreover, in series [3], the IC50 worked out at 4.1 µM. The CC50/IC50 with HeLa cells was 5.3. This compound came in with a CC50 in “in vitro” (HeLa CC50) of 16 µM.
For `Cc1ccc(N2C(=O)C3C(C2=O)C2(C)C=CC3(C)O2)c(C)c1` (centres unmarked) [Compound 8, 2-(2,4-dimethylphenyl)-4,7-dimethyl-3a,4,7,7a-tetrahydro-1H-4,7-epoxyisoindole-1,3(2H)-dione], the “Serum Effect” value in series [2] is given as 3.1. Also, in series [2], the “RLU Selectivity” value is 9.2. Besides, the results for the IC50 in series [1] (setting [7]), in series [1] (setting [8]) and in series [3] were 15 µM, ≤ 25 µM and 103 µM, respectively. Besides, in the series with HeLa cells, the CC50/IC50 is reported as >6.7. Further, the CC50 was ≥ 100 µM in the series “in vitro” (setting [9]) and > 100 µM in “in vitro” (HeLa CC50). Besides, the minimal inhibitory concentration (MIC) (as a rule, the least concentration at which growth counts as inhibited) with P. aeruginosa is > 100 µM. In series [4], the “rescue of CHO cells from ExoU cytotoxicity (in words)” value (shortened to “rescue of CHO cells”) is listed as “failed to inhibit T3SS-mediated translocation”.
`Cc1nnc(-c2ccc(OCC(=O)N3CCc4ccccc43)cc2)o1` [F5054-0019, 1-(indolin-1-yl)-2-(4-(5-methyl-1,3,4-oxadiazol-2-yl)phenoxy)ethanone]: the “RLU-S (RLU Selectivity)” value in series [2] is 10.8. Moreover, in series [1] (setting [10]), the IC50 turned out to be 22.3 µM.
Consider `CCN1CCOC(CC(=O)Nc2ccc(F)cc2)C1=O` (centres unmarked) [Compound 4, 2-(4-ethyl-3-oxomorpholin-2-yl)-N-(4-fluorophenyl)acetamide], for which, in series [2], the “Serum Effect” value amounted to 4.2. Besides, the “RLU Selectivity” value in series [2] is reported as 3.9. In addition, the IC50 was 13 µM in series [1] (setting [7]), ≤ 25 µM in series [1] (setting [8]) and 6 µM in series [3]. Moreover, the CC50/IC50 in the series with HeLa cells stood at 6.2. The results for the CC50 in the series “in vitro” (setting [9]) and in the series “in vitro” (HeLa CC50) were ≥ 100 µM and 100 µM, respectively. Besides, the minimum inhibitory concentration (MIC) in the series on P. aeruginosa was > 100 µM. In addition, the “rescue of CHO cells” value in series [4] was “failed to inhibit T3SS-mediated translocation”.
With `Cc1cc(Cl)ccc1OC(C)C(=O)NCc1ccc2c(c1)OCO2` (racemic) [compound 6116488, N-(1,3-benzodioxol-5-ylmethyl)-2-(4-chloro-2-methylphenoxy)propanamide], in series [1] (setting [5]), the IC50 was found to be 98 µM.
For `Cc1ccc(NC(=O)/C=C/C(=O)OCC(F)(F)C(F)F)cc1` [Compound 5, (E)-2,2,3,3-tetrafluoropropyl 4-oxo-4-(p-tolylamino)but-2-enoate], in series [2], the “Serum Effect” value came to 2.6 and the “RLU Selectivity” value is 4.5. Also, the IC50 in series [1] (setting [7]) amounted to 22 µM. The CC50/IC50 with HeLa cells was 1.3. In the series “in vitro” (HeLa CC50), this compound gave a CC50 of 28 µM.
As to `O=C(COc1ccc(Cl)cc1Cl)NCc1ccc2c(c1)OCO2` [MBX 1668, N-[3,4-(methylenedioxy)benzyl]-2-(2,4-dichlorophenoxy)acetamide], in series [1] (setting [6]), the IC50 was > 100 µM.
On to `C[C@H](Oc1ccc(Cl)cc1Cl)C(=O)NCc1ccc2c(c1)OCO2` [MBX 1686, N-[3,4-(methylenedioxy)benzyl]-(S)-2-(2,4-dichlorophenoxy)propanamide], for which the “T3SS inhibitory activity (active/inactive)” value in series [1] is “inactive”. Further, the IC50 in series [1] (setting [6]) and in series [1] (read-out: IC50 in the ExoS′-βLA secretion assay) was > 100 µM in each case.
Turning to `CC(Oc1ccc(Cl)cc1Cl)C(=O)NCc1ccco1` (racemic) [compound 5685325, 2-(2,4-dichlorophenoxy)-N-(2-furylmethyl)propanamide], the IC50 in series [1] (setting [5]) turned out to be 25 µM. The “rescue of CHO cells” value in series [4] is given as “rescued CHO cells”.
Turning to `CC(Oc1ccc(Cl)cc1Cl)C(=O)N(C)Cc1ccccc1` (racemic) [compound 6468028, N-benzyl-2-(2,4-dichlorophenoxy)-N-methylpropanamide], the IC50 in series [1] (setting [5]) came to 21 µM.
Still for that read-out and setting: the figure for `Cc1nn(C)cc1CNC(=O)C(C)Oc1ccc(Cl)cc1Cl` (racemic) [compound 8804126, 2-(2,4-dichlorophenoxy)-N-[(1,3-dimethyl-1H-pyrazol-4-yl)methyl]propanamide] is 61 µM.
`CC(Oc1ccc(Cl)cc1Cl)C(=O)NCc1ccc(F)cc1` (racemic) [compound 6380194, 2-(2,4-dichlorophenoxy)-N-(4-fluorobenzyl)propanamide]: in series [1] (setting [5]), the IC50 stood at 9 µM. For the same compound, the “rescue of CHO cells” value in series [4] is listed as “rescued CHO cells”.
`CC(Oc1ccc(Cl)cc1Cl)C(=O)NC(C)C1CC2CCC1C2` (centres unmarked) [compound 7247834, N-(1-(bicyclo[2.2.1]heptan-2-yl)ethyl)-2-(2,4-dichlorophenoxy)propanamide]: in series [2], the “RLU-S (RLU Selectivity)” value was found to be 5.6. Further, in series [1] (setting [10]), the IC50 stood at 16.7 µM.
With `CC(Oc1ccc(Cl)cc1Cl)C(=O)NCCC1=CCCCC1` (racemic) [compound 6467504, N-[2-(1-cyclohexen-1-yl)ethyl]-2-(2,4-dichlorophenoxy)propanamide], in series [1] (setting [5]), the IC50 is > 100 µM.
In the case of `O=C(CC1Sc2ncnn2C1=O)Nc1ccccc1` (centres unmarked) [Compound 2, 2-(6-oxo-5,6-dihydrothiazolo[3,2-b][1,2,4]triazol-5-yl)-N-phenylacetamide], in series [2], the “Serum Effect” value turned out to be 2. The “RLU Selectivity” value in series [2] is on record as 2.6. The values for the IC50 in series [1] (setting [7]) and in series [3] were 12 µM and 6.1 µM, respectively. Besides, the CC50/IC50 with HeLa cells amounted to 3.1. In the series “in vitro” (HeLa CC50), this compound had a CC50 of 37 µM.
Take `CC(Oc1ccccc1Cl)C(=O)NCc1ccc2c(c1)OCO2` (racemic) [compound 9153915, N-(1,3-benzodioxol-5-ylmethyl)-2-(2-chlorophenoxy)propanamide]: the IC50 in series [1] (setting [5]) came out at 23 µM.
`Oc1ccc(O)c(Cc2nc3ccccc3[nH]2)c1` [compound 6430631, 2-((1H-benzo[d]imidazol-2-yl)methyl)benzene-1,4-diol]: the “RLU-S (RLU Selectivity)” value in series [2] is on record as 4.2. In series [1] (setting [10]), the IC50 turned out to be 22.3 µM.
Consider `COc1ccccc1CNC(=O)C(C)Oc1ccc(Cl)cc1Cl` (racemic) [compound 6374948, 2-(2,4-dichlorophenoxy)-N-(2-methoxybenzyl)propanamide], for which the IC50 in series [1] (setting [5]) amounted to 12 µM.
For pseudolipasin [reference compound], the “rescue of CHO cells” value in series [4] is recorded as “rescued CHO cells from ExoU toxicity with a similar potency”.
Take `NC(=O)/C=C/C(=O)Nc1ccccc1Cl` [Compound 7, N1-(2-chlorophenyl)fumaramide]: in series [2], the “Serum Effect” value amounted to 1.5 and the “RLU Selectivity” value amounted to 4.7. The IC50 in series [1] (setting [7]) was 17 µM. In addition, the CC50/IC50 in the series with HeLa cells is listed as 2.4. The CC50 in “in vitro” (HeLa CC50) came out at 40 µM.
With `COc1ccc(CNC(=O)C(C)Oc2ccc(Cl)cc2Cl)cc1` (racemic) [compound 6375680, 2-(2,4-dichlorophenoxy)-N-(4-methoxybenzyl)propanamide], the 50% inhibitory concentration (IC50) in series [1] (setting [5]) was 10 µM.
The same measure, in the same setting: the figure for `Cc1ccc(CNC(=O)C(C)Oc2ccc(Cl)cc2Cl)cc1` (racemic) [compound 6109233, 2-(2,4-dichlorophenoxy)-N-(4-methylbenzyl)propanamide] is 5 µM.
Take `C[C@@H](Oc1ccc(Cl)cc1Cl)C(=O)NCc1ccc2c(c1)OCO2` [MBX 1684, (R)-N-(benzo[d][1,3]dioxol-5-ylmethyl)-2-(2,4-dichlorophenoxy)propanamide]: in series [1] (ExoS′-βLA reporter assay), the “T3SS inhibitory activity (active/inactive)” value was “active”. Besides, the IC50 was 6 µM in series [1] (setting [5]) and ~6 µM in series [1] (setting [8]).
Consider `CC(C)(Oc1ccc(Cl)cc1Cl)C(=O)NCc1ccc2c(c1)OCO2` [MBX 1685, N-[3,4-(methylenedioxy)benzyl]-2-(2,4-dichlorophenoxy)-2-methylpropanamide], for which, in series [1] (setting [6]), the IC50 is > 100 µM.
Turning to `CN1CCN(C(=S)c2ccc(N(C)C)cc2)CC1` [Compound 11, (4-(dimethylamino)phenyl)(4-methylpiperazin-1-yl)methanethione], in series [2], the “Serum Effect” value was 1 and the “RLU Selectivity” value is on record as 22. Besides, the IC50 in series [1] (setting [7]) stood at 19 µM. In addition, in series [3], the IC50 amounted to 19 µM. The CC50/IC50 with HeLa cells came to 0.9. The compound further registered a CC50 in the series “in vitro” (HeLa CC50) of 18 µM.
